Test results taken from the NIST ThermoML archive (doi:10.1021/acs.jced.7b00766).
± gives the expanded uncertainty stated by the source.

Conditions: Liquid, Ebulliometric method (Recirculating still)

Nc1ccccc1 [aniline]
vapor or sublimation pressure (450.25 K): 85 ± 1 kPa

CCCCO [butan-1-ol]
vapor or sublimation pressure (385.75 K): 85 ± 1 kPa

CCCCCCC [heptane]
vapor or sublimation pressure (365.65 K): 85 ± 1 kPa

CO [methanol]
vapor or sublimation pressure (333.15 K): 85 ± 1 kPa
